Results: US5789434A, “Derivatives of substituted 4-biarylbutyric acid as matrix metalloprotease inhibitors” (priority 1995, dated 1998)

Tests used:
MMP-3 = target: T1, MMP-3 (Homo sapiens, UniProt P08254); experiment: Primary Thiopeptilide MMP-3 Inhibition Assay; type: biochemical; conditions: for IC50: pH 6.5, 13 nM stromelysin, x (n) = average of n determinations, read-out: MMP-3 Thiopep. IC50; for inhibition at 5 µM: read-out: MMP-3 Thiopep. % inhibition
T1 construct: Truncated Prostromelysin-257 was expressed in a soluble form in E.coli; made in house; host or cells: E. coli

MMP-9 = target: T2, MMP-9 (Homo sapiens, UniProt P14780); experiment: Thiopeptilide MMP-9 Inhibition Assay; type: biochemical; conditions: for inhibition at 5 µM: read-out: MMP-9: Thiopep. % inhibition; for IC50: pH 6.5, x (n) = average of n determinations, read-out: MMP-9: Thiopep. IC50
T2 construct: from tissue; host or cells: human polymorphonuclear leukocytes (PMN) from whole blood (New York Blood Center), PMA-stimulated supernatant
T2 sequence (P14780 107-707 limits assumed): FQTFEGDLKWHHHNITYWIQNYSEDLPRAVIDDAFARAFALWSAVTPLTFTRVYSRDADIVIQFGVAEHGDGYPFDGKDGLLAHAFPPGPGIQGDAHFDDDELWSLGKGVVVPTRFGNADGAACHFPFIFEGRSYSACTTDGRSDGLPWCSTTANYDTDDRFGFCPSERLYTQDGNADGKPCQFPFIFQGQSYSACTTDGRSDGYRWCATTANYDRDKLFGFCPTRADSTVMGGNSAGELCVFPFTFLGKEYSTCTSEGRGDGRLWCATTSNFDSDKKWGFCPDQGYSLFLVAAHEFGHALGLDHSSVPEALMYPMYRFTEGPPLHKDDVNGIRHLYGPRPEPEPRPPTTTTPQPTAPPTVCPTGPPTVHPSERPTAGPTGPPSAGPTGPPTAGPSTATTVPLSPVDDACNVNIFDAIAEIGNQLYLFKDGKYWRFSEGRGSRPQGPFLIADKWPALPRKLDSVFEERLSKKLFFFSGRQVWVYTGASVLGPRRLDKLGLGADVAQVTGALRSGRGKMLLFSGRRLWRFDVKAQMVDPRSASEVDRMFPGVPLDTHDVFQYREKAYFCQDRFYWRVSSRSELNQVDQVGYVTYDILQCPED

T1 sequence (P08254 100-274 limits assumed): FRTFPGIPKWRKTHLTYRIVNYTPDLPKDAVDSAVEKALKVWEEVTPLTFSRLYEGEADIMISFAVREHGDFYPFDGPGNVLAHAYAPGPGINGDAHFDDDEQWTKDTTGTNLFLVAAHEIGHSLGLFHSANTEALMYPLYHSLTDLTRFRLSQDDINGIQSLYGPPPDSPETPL

SMILES | IC50 (MMP-3) | inhibition at 5 µM (MMP-9) | inhibition at 5 µM (MMP-3) | IC50 (MMP-9)
CC(=O)c1ccc(-c2ccc(Cl)cc2)cc1 [Example 37, Ethanone, 1-(4'-chloro[1,1'-biphenyl]-4-yl)-] | – | 0% | 9% | –
O=C(c1ccc(-c2ccc(Cl)cc2)cc1)[C@H]1C[C@H]1C(=O)O (relative stereo) [Example 292, Cyclopropanecarboxylic acid, 2-[(4'-chloro[1,1'-biphenyl]-4-yl)carbonyl]-, cis-, reference compound] | – | 12% | 21% | –
CC(C)(CCC(=O)c1ccc(-c2ccc(Cl)cc2)cc1)C(=O)O [Example 337, [1,1'-Biphenyl]-4-pentanoic acid, 4'-chloro-α,α-dimethyl-δ-oxo-] | – | 2% | 20% | –
CC(C)CC(CC(=O)c1ccc(-c2ccc(O)cc2)cc1)C(=O)O (stereo not drawn) [Example 31, [1,1'-Biphenyl]-4-butanoic acid, 4'-hydroxy-α-(2-methylpropyl)γ-oxo-] | – | 29% | 56% | –
O=C(CC(CSc1ccc(F)cc1)C(=O)O)c1ccc(-c2ccc(Cl)cc2)cc1 (stereo not drawn) [Example 208, [1,1'-Biphenyl]-4-butanoic acid, 4'-chloro-α-[[(4-fluorophenyl)thio]methyl]-γ-oxo-] | 140 nM | – | – | 1050 nM
O=C(O)[C@H]1[C@@H](Sc2ccccc2)CC[C@@H]1C(=O)c1ccc(-c2ccc(Cl)cc2)cc1 (relative stereo) [Example 295] | 99 nM | – | – | 600 nM
O=C(CC(CSc1cccs1)C(=O)O)c1ccc(-c2ccc(Cl)cc2)cc1 (stereo not drawn) [Example 199, [1,1'-Biphenyl]-4-butanoic acid, 4'-chloro-γ-oxo-α-[(2-thienylthio)methyl]-] | 170 nM | – | – | 200 nM
O=C(CC(CSc1ccc([N+](=O)[O-])cc1)C(=O)O)c1ccc(-c2ccc(Cl)cc2)cc1 (stereo not drawn) [Example 224, [1,1'-Biphenyl]-4-butanoic acid, 4'-chloro-α[[(4-nitrophenyl)thio]methyl]-γ-oxo-] | 680 nM | – | – | 550 nM
O=C(c1ccc(-c2ccc(Cl)cc2)cc1)[C@H]1CC[C@H]1C(=O)O (relative stereo) [Example 290, Cyclobutanecarboxylic acid, 2-[(4'-chloro[1,1'-biphenyl]-4-yl)carbonyl]-, cis-] | – | 15% | 35% | –
COC(=O)c1ccccc1S[C@H]1CC[C@H](C(=O)c2ccc(-c3ccc(Cl)cc3)cc2)[C@H]1C(=O)O (relative stereo) [Example 298, trans-5-[4-(4-chlorophenyl)phenylcarbonyl]-cis-2-(2-methoxycarbonylphenylthio)cyclopentanecarboxylic acid] | 50 nM | – | – | 850 nM
CCCCCc1ccc(-c2ccc(C(=O)CC(CC(C)C)C(=O)O)cc2)cc1 (stereo not drawn) [Example 22, [1,1'-Biphenyl]-4-butanoic acid, α-(2-methylpropyl)-γ-oxo-4'-pentyl-] | 790 nM | – | – | 1200 nM
CC(C)CC(CC(=O)c1ccc(-c2ccc(Cl)c(Cl)c2)cc1)C(=O)O (stereo not drawn) [Example 64, [1,1'-Biphenyl]-4-butanoic acid, 3',4'-dichloro-α-(2-methylpropyl)-γ-oxo-] | 300 nM | 29% | – | –
O=C(O)CCC(O)c1ccc(-c2ccccc2F)cc1 (centres unmarked) [Example 39, [1,1'-Biphenyl]-4-butanoic acid, 2'-fluoro-γ-hydroxy-, reference compound] | – | 4% | 16% | –
O=C(CC(CSc1ccc(Cl)c(Cl)c1)C(=O)O)c1ccc(-c2ccc(Cl)cc2)cc1 (stereo not drawn) [Example 216, [1,1'-Biphenyl]-4-butanoic acid, 4'-chloro-α-[[(3,4-dichlorophenyl)thio]methyl]-γ-oxo-] | 770 nM | – | – | 590 nM
O=C(O)C1C2C=CC(CC2)C1C(=O)c1ccc(-c2ccc(Cl)cc2)cc1 (centres unmarked) [Example 330] | – | 16% | 9% | –
O=C(O)CC(CSc1ccccc1)C(=O)c1ccc(-c2ccc(Cl)cc2)cc1 (stereo not drawn) [Example 257, [1,1'-Biphenyl]-4-butanoic acid, 4'-chloro-γ-oxo-β-[(phenylthio)methyl]-] | 800 nM | – | – | 2100 nM
O=C(O)[C@@H]1C[C@H]1C(=O)c1ccc(-c2ccc(Cl)cc2)cc1 (relative stereo) [Example 293, Cyclopropanecarboxylic acid, 2-[(4'-chloro[1,1'-biphenyl]-4-yl)carbonyl]-, trans-, reference compound] | – | 0% | 16% | –
O=C(O)c1ccccc1C(=O)c1ccc(-c2ccc(Cl)cc2)cc1 [Example 287, Benzoic acid, 2-[(4'-chloro[1,1'-biphenyl]-4-yl)carbonyl]-] | – | 3% | 26% | –
CC(C)C[C@@H](CC(=O)c1ccc(-c2ccc(Cl)cc2)cc1)C(=O)O [Example 2, [1,1'-Biphenyl]-4-butanoic acid, 4'-chloro-α-(2-methylpropyl)-γ-oxo-, (S)-] | 270 nM | – | – | 2200 nM
O=C(O)CCC(=O)c1ccc(-c2ccc(F)cc2)cc1 [Example 8, [1,1'-Biphenyl]-4-butanoic acid, 4'-fluoro-γ-oxo-, reference compound] | – | 0% | 26% | –

Results, then the compound that gave them:

IC50 (MMP-3) | inhibition at 5 µM (MMP-9) | inhibition at 5 µM (MMP-3) | IC50 (MMP-9) | SMILES
1600 nM | 50% | – | – | Nc1ccc(-c2ccc(C(=O)CC(CCc3ccccc3)C(=O)O)cc2)cc1 (stereo not drawn) [Example 136, [1,1'-Biphenyl]-4-butanoic acid, 4'-amino-γ-oxo-α-(2-phenylethyl)-]
400 nM | – | – | 4500 nM | O=C(CC(CCCc1ccccc1)C(=O)O)c1ccc(-c2ccc(C(F)(F)F)cc2)cc1 (stereo not drawn) [Example 62, [1,1'-Biphenyl]-4-butanoic acid, γ-oxo-α-(3-phenylpropyl)-4'-(trifluoromethyl)-]
530 nM | – | – | 600 nM | O=C(CC(CC#Cc1ccccc1)C(=O)O)c1ccc(-c2ccc(Cl)cc2)cc1 (stereo not drawn) [Example 189, [1,1'-Biphenyl]-4-butanoic acid, 4'-chloro-γ-oxo-α-(3-phenyl-2-propynyl)-]
300 nM | – | – | 900 nM | COc1ccccc1SCC(CC(=O)c1ccc(-c2ccc(Cl)cc2)cc1)C(=O)O (stereo not drawn) [Example 229, [1,1'-Biphenyl]-4-butanoic acid, 4'-chloro-α-[[(2-methoxyphenyl)thio]methyl]-γ-oxo-]
170 nM | – | – | 110 nM | C=Cc1ccc(-c2ccc(C(=O)CC(CCCc3ccccc3)C(=O)O)cc2)cc1 (stereo not drawn) [Example 55, [1,1'-Biphenyl]-4-butanoic acid, 4'-ethenyl-γ-oxo-α-(3-phenylpropyl)-]
630 nM | – | – | 800 nM | N#CCc1ccc(-c2ccc(C(=O)CC(CCCc3ccccc3)C(=O)O)cc2)cc1 (stereo not drawn) [Example 50, [1,1'-Biphenyl]-4-butanoic acid, 4'-(cyanomethyl)γ-oxo-α-(3-phenylpropyl)-]
840 nM | 47% | – | – | O=C(CC(CCCc1ccccc1)C(=O)O)c1ccc(-c2ccc(Cl)c(Cl)c2)cc1 (stereo not drawn) [Example 65, [1,1'-Biphenyl]-4-butanoic acid, 3',4'-dichloro-γ-oxo-α-(3-phenylpropyl)-]
170 nM | – | – | 100 nM | CSc1ccc(-c2ccc(C(=O)CC(CCCc3ccccc3)C(=O)O)cc2)cc1 (stereo not drawn) [Example 51, [1,1'-Biphenyl]-4-butanoic acid, 4'-(methylthio)-γ-oxo-α-(3-phenylpropyl)-]
– | 22% | 16% | – | O=C(CC(CCCc1ccccc1)C(=O)O)c1ccc(-c2ccc(-c3nnn[nH]3)cc2)cc1 (stereo not drawn) [Example 57, [1,1'-Biphenyl]-4-butanoic acid, γ-oxo-α-(3-phenylpropyl)-4'-(1H-tetrazol-5-yl)-]
560 nM | 22% | – | – | CC(C)(C)OC(=O)Nc1ccc(-c2ccc(C(=O)CC(CCCc3ccccc3)C(=O)O)cc2)cc1 (stereo not drawn) [Example 47, [1,1'-Biphenyl]-4-butanoic acid, 4'-[[(1,1-dimethylethoxy)carbonyl]amino]-γ-oxo-α-(3-phenylpropyl)-]
– | 11% | 36% | – | O=C(CC(CCCc1ccccc1)C(=O)O)c1ccc(-c2ccc(OCCCc3ccccc3)cc2)cc1 (stereo not drawn) [Example 90, [1,1'-Biphenyl]-4-butanoic acid, γ-oxo-4'-(3-phenylpropoxy)-α-(3-phenylpropyl)-]
– | 12% | 30% | – | O=C(CC(CCCc1ccccc1)C(=O)O)c1ccc(-c2cccc(C(F)(F)F)c2)cc1 (stereo not drawn) [Example 81, [1,1'-Biphenyl]-4-butanoic acid, γ-oxo-α-(3-phenylpropyl)-3'-(trifluoromethyl)-]
500 nM | – | – | 680 nM | O=C(O)CCC(CCCc1ccccc1)C(=O)c1ccc(-c2ccc(Cl)cc2)cc1 (centres unmarked) [Example 343, [1,1'-Biphenyl]-4-pentanoic acid, 4'-chloro-δ-oxo-γ-(phenylpropyl)-]
470 nM | – | – | 800 nM | O=C(CC(CCCc1ccccc1)C(=O)O)c1ccc(-c2cccs2)cc1 (stereo not drawn) [Example 80, Benzenepentanoic acid, α-[2-oxo-2-[4-(2-thienyl)phenyl]ethyl]-]
150 nM | – | – | 780 nM | CC(=O)Oc1ccc(-c2ccc(C(=O)CC(CCCc3ccccc3)C(=O)O)cc2)cc1 (stereo not drawn) [Example 67, [1,1'-Biphenyl]-4-butanoic acid, 4'-(acetyloxy)-γ-oxo-α-(3-phenylpropyl)-]
250 nM | – | – | 500 nM | O=C(CC(CSC(=O)c1ccccc1)C(=O)O)c1ccc(-c2ccc(Cl)cc2)cc1 (stereo not drawn) [Example 202, [1,1'-Biphenyl]-4-butanoic acid, α-[(benzoylthio)methyl]-4'-chloro-γ-oxo-]
180 nM | – | – | 290 nM | O=C(CC(CSCCCc1ccccc1)C(=O)O)c1ccc(-c2ccc(Cl)cc2)cc1 (stereo not drawn) [Example 207, [1,1'-Biphenyl]-4-butanoic acid, 4'-chloro-γ-oxo-α-[[(3-phenylpropyl)thio]methyl]-]
